Measurements from patent US20250092065A1, “2-(INDAZOL-5-YL)-6-(PIPERIDIN-4-YL)-1,7-NAPHTHYRIDINE DERIVATIVES AND RELATED COMPOUNDS AS MODULATORS FOR SPLICING NUCLEIC ACIDS AND FOR THE TREATMENT OF PROLIFERATIVE DISEASES” (REMIX THERAPEUTICS INC., priority 2022, published 2025).
Where two headings read alike, the source gives them in different places.

Assays:
HTT mRNA = test: RT-qPCR splicing assay, HTT mRNA canonical (CJ) and alternative (AJ) junction; type: cell-based, human; details: Homo sapiens
Description: (§1) Compounds described herein were used to modulate RNA transcript abundance in cells. The expression of a target mRNA was measured by detecting the formation of an exon-exon junction in the canonical transcript (CJ). A compound mediated exon-inclusion event was detected by observing an increase in formation of a new junction with an alternative exon (AJ). Real-time qPCR assays were used to detect these splicing switches and interrogate the potency of various compounds towards different target genes. A high-throughput real time quantitative PCR (RT-qPCR) assay was developed to measure these two isoforms of the mRNA (CJ and AJ) for exemplary genes, such as HTT, SMN2, and MYB, together with a control housekeeping gene, GAPDH or GUSB or PPIA, used for normalization. Briefly, the A673 or K562 cell line was treated with various compounds described herein (e.g., compounds of Formula (I)). After treatment, the levels of the HTT, MYB, or SMN2 mRNA targets were determined from each sample of cell lysate by cDNA synthesis followed by qPCR.
(§2) The A673 cell line was cultured in DMEM with 10% FBS. Cells were diluted with full growth media and plated in a 96-well plate (15,000 cells in 100 ul media per well). The plate was incubated at 37° C. with 5% CO2 for 24 hours to allow cells to adhere. An 11-point 3-fold serial dilution of the compounds was made in DMSO then diluted in media in an intermediate plate. Compounds were transferred from the intermediate plate to the cell plate with the top dose at a final concentration of 10 uM in the well. Final DMSO concentration was kept at or below 0.25%. The cell plate was returned to the incubator at 37° C. with 5% CO2 for an additional 24 hours.
(§3) The K562 cell line was cultured in IMDM with 10% FBS. For K562, cells were diluted with full growth media and plated in either a 96-well plate (50,000 cells in 50 uL media per well) or a 384-well plate (8,000-40,000 cells in 45 uL media per well). An 11-point 3-fold serial dilution of the compounds were made in DMSO then diluted in media in an intermediate plate. Compound was transferred from the intermediate plate to the cell plate with the top dose at a final concentration of 10 uM in the well. Final DMSO concentration was kept at or below 0.25%. Final volume was 100 uL for 96-well plate and 50 uL for 384-well plate. The cell plate was then placed in an incubator at 37° C. with 5% CO2 for 24 hours.
(§4) The cells were then gently washed with 50 uL-100 uL cold PBS before proceeding to addition of lysis buffer. 30 uL-50 μL of room temperature lysis buffer with DNAse I (and optionally RNAsin) was added to each well. Cells were shaken/mixed thoroughly at room temperature for 5-10 minutes for lysis to take place and then 3 uL-5 μL of room temperature stop solution was added and wells were shaken/mixed again. After 2-5 minutes, the cell lysate plate was transferred to ice for RT-qPCR reaction setup. The lysates could also be frozen at −80° C. for later use.
(§5) In some cases, a direct lysis buffer was used. An appropriate volume of 3× lysis buffer (10 mM Tris, 150 mM NaCl, 1.5%-2.5% Igepal and 0.1-1 U/uL RNAsin, pH 7.4) was directly added to either K562 or A673 cells in media and mixed by pipetting 3 times. The plates were then incubated at room temperature with shaking/rocking for 20-50 minutes to allow for lysis to take place. After this time, the cell lysate plate was transferred to ice to set up for the RT-qPCR reactions. The lysates could also be frozen at −80° C. for later use.
(§6) To set up 10 uL RT-qPCR reactions, cell lysates were transferred to 384-well qPCR plates containing the master mix according to the table below. The plates were sealed, gently vortexed, and spun down before the run. The volumes were adjusted accordingly in some instances where the reaction was carried in 20 μL. The table below summarizes the components of the RT-qPCR reactions:
(§7) The RT-qPCR reaction was performed using a QuantStudio (ThermoFisher) under the following fast cycling conditions. […]

MYB mRNA = test: RT-qPCR splicing assay, MYB mRNA canonical (CJ) and alternative (AJ) junction; type: cell-based, human; details: Homo sapiens
Description: as §1, §2, §3, §4, §5, §6, §7

SMN2 mRNA = test: RT-qPCR splicing assay, SMN2 mRNA; type: cell-based, human; details: Homo sapiens, canonical junction qPCR panel, Table 4; read-out: SMN2 IC50 (decrease in CJ mRNA levels)
Description: as §1, §2, §3, §4, §5, §6, §7

MYB = test: HiBiT protein abundance assay, MYB (K562 HiBiT knock-in); type: cell-based, human; details: HiBiT knock-in K562 cells, 24 hours, top dose 10 μM
Description: (§8) Compounds described herein were used to screen for effects on quantitative protein abundance using a HiBit assay system (Promega). Quantitative protein abundance was determined by measuring the protein levels of HiBit-tagged protein targets expressed in cell culture via luminescence using the Nano-Glo HiBiT Lytic Detection System, which uses a split complementation assay format to reconstitute NanoBiT enzyme to generate a luminescent signal. A protein abundance assay was developed such that endogenous protein targets could be modified with the HiBiT peptide tag and their abundance could be assessed after compound treatment. Briefly, K562 cell lines containing a HiBiT-modification were treated with various compounds described herein (e.g., compounds of Formulas (I), or (II)). After treatment for 24 hours, the protein abundance of a specific target was determined by measuring luminescence.
(§9) Cells were maintained in IMIDM with 10% FBS. Before the assay, cells were diluted with […] growth media (IMIDM+[…] media) and were seeded in a 384-well plate at a density of 10000 cells/well (for each cell line listed in Table 6). Each compound was prepared as a 10-point 3-fold serial dilution in DMSO with the top dose at a final concentration of 10 μM in the well. Unmodified K562 cells were added at the previously specified density with DMSO to serve as an assay baseline and positive control (PC) and DMSO only with the respective modified cell lines was added to the negative control (NC) columns. Final DMSO concentration was kept at or below 0.25%. Treated cell plates were placed in an incubator at 37° C. with […] for 24 hours. After 24 hours, 25 μL of Complete HiBit Lytic reagent was added to each well at room temperature (e.g. one plate requiring 10 mL Lytic Buffer, 100 μL LgBiT Protein, 200 μL Lytic Substrate), shaken for 5 minutes at 600 RPM, then left to sit for 10 minutes for signal to stabilize before reading on a Spark Cyto plate reader (Tecan) with a 500 ms measurement time.
(§10) To determine compound effects on protein abundance of each target in Table 6, the percent response for each respective cell line was calculated at each compound concentration as follows:
(§11) % response=100*(S−PC)(NC−PC)
(§12) For the normalized response at each concentration, a four-parameter logistical regression was fit to the data and the response was interpolated at the […] to determine a concentration for protein abundance at 50% (IC50) the untreated control.

HTT = test: HiBiT protein abundance assay, HTT (K562 HiBiT knock-in); type: cell-based, human; details: HiBiT knock-in K562 cells, 24 hours, top dose 10 μM
Description: as §8, §9, §10, §11, §12

Target C = test: HiBiT protein abundance assay, Target C (K562 HiBiT knock-in); type: cell-based, human; details: HiBiT knock-in K562 cells, 24 hours, top dose 10 μM
Description: as §9, §10, §11, §12

K562 cells = test: Cell Titer Glo 2.0 cell viability (toxicity) assay, K562; details: 500 cells/well, 72 hours
Description: Compounds described herein were screened for toxicity in K562 (human chronic myelogenous leukemia) and SH-SY5Y (human neuroblastoma) cells using a Cell Titer Glo 2.0 assay.
Cells were plated at 500 cells/well (K562 cells) in 45 μL of IMDM supplemented with 10% FBS in a 384-well opaque plate. Wells containing only medium were used as a blank control. Test compounds (e.g., compounds of Formula (I) or (II)) were first serially diluted in DMSO then diluted 1:100 with EIDM+10% FBS. The final concentration of DMSO was 0.1% in each well. The cells were incubated for 72 hours at 37° C. and 5% CO2 before assaying with Cell Titer Glo 2.0 reagent.

[1] = HTT alternative junction mRNA, RT-qPCR, read-out: HTT AJ (increase in AJ mRNA, AC50)
[2] = HTT canonical junction mRNA, RT-qPCR, read-out: HTT CJ (decrease in CJ mRNA levels, IC50)
[3] = canonical junction qPCR panel, Table 4, read-out: HTT IC50 (decrease in CJ mRNA levels)
[4] = MYB alternative junction mRNA, RT-qPCR, read-out: MYB AJ (increase in AJ mRNA, AC50)
[5] = MYB canonical junction mRNA, RT-qPCR, read-out: MYB CJ (decrease in CJ mRNA levels, IC50)
[6] = canonical junction qPCR panel, Table 4, read-out: MYB IC50 (decrease in CJ mRNA levels)
[7] = RT-qPCR, HTT alternative junction mRNA increase, read-out: HTT AJ (increase in alternative junction mRNA, AC50)
[8] = RT-qPCR, HTT canonical junction mRNA decrease, read-out: HTT CJ (decrease in canonical junction mRNA, IC50)
[9] = RT-qPCR, MYB alternative junction mRNA increase, read-out: MYB AJ (increase in alternative junction mRNA, AC50)
[10] = RT-qPCR, MYB canonical junction mRNA decrease, read-out: MYB CJ (decrease in canonical junction mRNA, IC50)

SMILES | AC50 (HTT mRNA; [1]) [nM] | IC50 (HTT mRNA; [2]) [nM] | IC50 (HTT mRNA; [3]) [nM] | AC50 (MYB mRNA; [4]) [nM] | IC50 (MYB mRNA; [5]) [nM] | IC50 (MYB mRNA; [6]) [nM] | IC50 (SMN2 mRNA) [nM] | IC50 (MYB) [nM] | IC50 (HTT) [nM] | IC50 (Target C) [nM] | Effect of Exemplary Compounds on Cell Viability, K562 (K562 cells) | AC50 (HTT mRNA; [7]) [nM] | IC50 (HTT mRNA; [8]) [nM] | AC50 (MYB mRNA; [9]) [nM] | IC50 (MYB mRNA; [10]) [nM]
Cc1nc2c(F)c(O)c(-c3ccc4nc(N5CC[C@@H](NC(C)(C)C)C5)ccc4n3)cc2o1 (single isomer, unassigned) [Compound 256] | < 100 | < 100 | < 100 | < 100 | < 100 | < 100 | < 100 | < 100 | < 100 | < 100 | A (A represents <100 nM) | – | – | – | –
CN(C(=O)Nc1cn[nH]c1)c1cc2nc(N3CCNCC3)ccc2cn1 [Compound 110] | – | – | – | – | – | – | – | > 10000 | > 10000 | > 10000 | – | – | – | – | –
O=C(Nc1cn[nH]c1)Nc1cc2nc(N3CCNCC3)ccc2cn1 [Compound 111] | – | – | – | – | – | – | – | > 10000 | > 10000 | > 10000 | – | – | – | – | –
O=C(NCc1ccn[nH]1)Nc1cc2nc(N3CCNCC3)ccc2cn1 [Compound 112] | – | – | – | – | – | – | – | > 10000 | > 10000 | > 10000 | – | – | – | – | –
CN1CCC(N(C)c2ccc3nc(-c4cc5cn(C)nc5cc4O)ccc3n2)CC1 [Compound 126] | 100 to 1000 | 100 to 1000 | 100 to 1000 | 100 to 1000 | 100 to 1000 | 100 to 1000 | < 100 | 100 to 1000 | 100 to 1000 | 100 to 1000 | – | – | – | – | –
Cn1cc2cc(-c3ccc4nc(N5C[C@H]6CC[C@@H](C5)N6)ccc4n3)c(O)cc2n1 [Compound 135] | 1000 to 10000 | 1000 to 10000 | 1000 to 10000 | 100 to 1000 | 100 to 1000 | 100 to 1000 | < 100 | 100 to 1000 | 1000 to 10000 | 1000 to 10000 | – | – | – | – | –
Cc1cn2cc(-c3ccc4nc(C5CCNCC5)ccc4n3)c(O)c(C)c2n1 [Compound 151] | 100 to 1000 | 100 to 1000 | 100 to 1000 | 100 to 1000 | 100 to 1000 | 100 to 1000 | 100 to 1000 | 100 to 1000 | 100 to 1000 | 100 to 1000 | – | – | – | – | –
Cn1cc2cc(-c3ccc4cc(C5CCNCC5)ccc4n3)c(O)c(F)c2n1 [Compound 241] | < 100 | < 100 | – | < 100 | < 100 | – | – | < 100 | < 100 | < 100 | A (A represents <100 nM) | – | – | – | –
CNC(=O)c1nc(-c2cc3cn(C)nc3c(C)c2O)nc2ccc(N3CCNCC3)cc12 [Compound 501, 2-(6-hydroxy-2,7-dimethylindazol-5-yl)-N-methyl-6-(piperazin-1-yl)quinazoline-4-carboxamide] | – | – | – | – | – | – | – | < 100 | 100 to 1000 | 100 to 1000 | A (A represents <100 nM) | – | – | – | –
Cc1nc2c(F)cc(-c3ncc4cc(N5C[C@@H](C)N[C@@H](C)C5)ccc4n3)cn2c1F [Compound 837, 2-{3,8-difluoro-2-methylimidazo[1,2-a]pyridin-6-yl}-6-[(3R,5S)-3,5-dimethylpiperazin-1-yl]quinazoline] | – | – | 100 to 1000 | – | – | 1000 to 10000 | 100 to 1000 | – | – | – | C (C represents 1000-9999 nM) | 1000 to 10000 | 100 to 1000 | 1000 to 10000 | 1000 to 10000
COc1nc(-c2ncc3cc(N4C[C@@H](C)N[C@@H](C)C4)ccc3n2)cn2cc(C)nc12 [Compound 838] | – | – | > 10000 | – | – | 100 to 1000 | < 100 | – | – | – | C (C represents 1000-9999 nM) | > 10000 | > 10000 | 100 to 1000 | 100 to 1000
C[C@H]1CN(c2ccc3nc(-c4cc(F)c5nn(C)c(F)c5c4)ncc3c2)C[C@H](C)N1 [Compound 924] | – | – | > 10000 | – | – | 1000 to 10000 | 100 to 1000 | – | – | – | C (C represents 1000-9999 nM) | 1000 to 10000 | > 10000 | 1000 to 10000 | 1000 to 10000
C[C@@H]1CN(c2ccc3nc(-c4cc(F)c5nn(C)c(F)c5c4)ncc3c2)C[C@H](C)N1 [Compound 925] | – | – | 1000 to 10000 | – | – | 1000 to 10000 | 100 to 1000 | – | – | – | C (C represents 1000-9999 nM) | 100 to 1000 | 1000 to 10000 | 1000 to 10000 | 1000 to 10000
